Data from the supplement of paper PMC10307832.

Experiments:
Test in all cases: relative viability (nuclei count vs DMSO), 5 days (fraction); higher = more cells survive
BX 795 + Navitoclax = compound: O=C(NCCCNc1nc(Nc2cccc(NC(=O)N3CCCC3)c2)ncc1I)c1cccs1 [BX 795] + CC1(C)CCC(c2ccc(Cl)cc2)=C(CN2CCN(c3ccc(C(=O)NS(=O)(=O)c4ccc(N[C@H](CCN5CCOCC5)CSc5ccccc5)c(S(=O)(=O)C(F)(F)F)c4)cc3)CC2)C1 [Navitoclax] (partner 0.5 µM)
Summary of the method: (§1)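 Relative viability is defined as nuclei in treated wells over nuclei in vehicle wells. Duplicate plates were run and medians reported. Lung cancer cell lines in 1536-well plates were dosed by pin tool one day after seeding, with one drug or with a fixed anchor-drug dose plus five library-drug doses (not always all listed) in √10 steps, and nuclei were counted after 5 days.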

BX 795 + Lapatinib = compound: O=C(NCCCNc1nc(Nc2cccc(NC(=O)N3CCCC3)c2)ncc1I)c1cccs1 [BX 795] + CS(=O)(=O)CCNCc1ccc(-c2ccc3ncnc(Nc4ccc(OCc5cccc(F)c5)c(Cl)c4)c3c2)o1 [Lapatinib] (partner 2 µM)
Summary of the method: as §1

BX 795 + Linsitinib = compound: O=C(NCCCNc1nc(Nc2cccc(NC(=O)N3CCCC3)c2)ncc1I)c1cccs1 [BX 795] + C[C@]1(O)C[C@@H](c2nc(-c3ccc4ccc(-c5ccccc5)nc4c3)c3c(N)nccn32)C1 [Linsitinib] (partner 1 µM)
Summary of the method: as §1

BX 795 + Decitabine = compound: O=C(NCCCNc1nc(Nc2cccc(NC(=O)N3CCCC3)c2)ncc1I)c1cccs1 [BX 795] + Nc1ncn([C@H]2C[C@H](O)[C@@H](CO)O2)c(=O)n1 [Decitabine] (partner 2 µM)
Summary of the method: as §1

BX 795 + Vorinostat = compound: O=C(NCCCNc1nc(Nc2cccc(NC(=O)N3CCCC3)c2)ncc1I)c1cccs1 [BX 795] + O=C(CCCCCCC(=O)Nc1ccccc1)NO [Vorinostat] (partner 1 µM)
Summary of the method: as §1

Cell Line	relative viability (BX 795 + Navitoclax; first compound 0.04 µM)	relative viability (BX 795 + Navitoclax; first compound 0.4 µM)	relative viability (BX 795 + Navitoclax; first compound 1.265 µM)	relative viability (BX 795 + Lapatinib; first compound 0.04 µM)	relative viability (BX 795 + Lapatinib; first compound 0.4 µM)	relative viability (BX 795 + Lapatinib; first compound 1.265 µM)	relative viability (BX 795 + Linsitinib; first compound 0.04 µM)	relative viability (BX 795 + Linsitinib; first compound 0.4 µM)	relative viability (BX 795 + Linsitinib; first compound 1.265 µM)	relative viability (BX 795 + Decitabine; first compound 0.04 µM)	relative viability (BX 795 + Decitabine; first compound 0.1265 µM)	relative viability (BX 795 + Decitabine; first compound 0.4 µM)	relative viability (BX 795 + Decitabine; first compound 1.265 µM)	relative viability (BX 795 + Vorinostat; first compound 0.04 µM)	relative viability (BX 795 + Vorinostat; first compound 0.1265 µM)	relative viability (BX 795 + Vorinostat; first compound 0.4 µM)	relative viability (BX 795 + Vorinostat; first compound 1.265 µM)	relative viability (BX 795 + Navitoclax; first compound 0.1265 µM)	relative viability (BX 795 + Lapatinib; first compound 0.1265 µM)	relative viability (BX 795 + Linsitinib; first compound 0.1265 µM)
EPLC-272H	1.14	1.27	1.12	1.01	0.893	0.677	1.33	1.06	0.972	0.356	0.472	0.374	0.305	0.533	0.472	0.354	0.219			
NCI-H2126	0.795	0.965	0.787	0.728	0.837	0.767	0.714	0.757	0.701	0.626	0.553	0.747	0.593	0.805	0.799	0.913	0.73	0.826	0.752	0.656
A-427	0.97	1.01	0.788	0.842	1.06	0.886	1.17	1.15	0.982	0.588	0.588	0.545	0.516	0.915	0.812	0.872	0.754	1.02	1	1.13
SW 1573	0.886	1.12	0.837	1.13	1.26	0.781	0.962	1.02	0.629	0.651	0.652	0.581	0.381	0.862	0.875	0.558	0.276	1.13	1.18	0.873
NCI-H1395	1.23	0.531	0.837	0.815	0.595	0.948	1.1	0.611	0.786	0.693	0.774	0.48	0.597	0.574	0.624	0.404	0.516	1.06	0.819	0.957
LXF-289	0.971	0.975	0.628	0.867	0.904	0.843	0.969	1.03	0.678	0.448	0.347	0.582	0.373	0.838	0.719	0.811	0.674	0.926	0.896	0.949
EMC-BAC-2	1.18	1.24	0.906	0.907	0.884	0.758	0.79	0.83	0.615	1.02	1.03	0.962	0.736	0.393	0.261	0.411	0.198	1.24	0.905	0.888
NCI-H1755	1.07	1.04	0.671	1.03	0.999	0.861	1.04	1.01	0.689	0.796	0.645	0.885	0.704	0.738	0.735	0.739	0.761	0.978	1.05	0.93
LK-2	0.873	0.787	0.608	1.02	0.83	0.797	0.518	0.484	0.393	0.447	0.266	0.294	0.271	0.398	0.37	0.286	0.239	0.876	0.912	0.396
NCI-H2085	1.12	1.27	1.01	0.881	0.741	0.642	0.883	1.04	0.737	0.683	0.501	0.737	0.575	0.78	0.809	0.778	0.725	1.17	0.781	0.961
NCI-H838	1.05	1.02	0.519	0.87	0.736	0.424	0.936	0.881	0.331	0.568	0.487	0.512	0.322	0.737	0.69	0.642	0.201	1.1	0.943	0.986
LU99A	1.03	0.821	0.498	1.05	0.714	0.665	0.552	0.467	0.225	0.967	0.81	0.921	0.428	0.472	0.485	0.37	0.363	0.755	1.03	0.631
NCI-H3122	1.03	1.04	1.05	1.04	1.09	1.05	0.989	1.08	1.1	0.415	0.428	0.477	0.532	0.715	1.03	1.11	0.679	1	1	1.02
NCI-H1734	0.882	0.828	0.618	0.993	0.79	0.801	0.915	0.861	0.761	0.582	0.613	0.545	0.504	0.888	0.773	0.482	0.34	0.945	1.15	0.968
LC-2-ad	0.503	0.467	0.213	0.89	0.7	0.274	0.83	0.637	0.351	0.777	0.835	0.74	0.611	0.755	0.759	0.595	0.37	0.448	0.962	0.715
UMC-11	0.321	0.326	0.17	0.949	0.757	0.333	0.751	0.95	0.348	0.457	0.688	0.436	0.593	0.422	0.308	0.354	0.348	0.347	1.05	1.02
